Earlier results in patent publication US7922709B2, “Enhanced delivery of naked DNA to skin by non-invasive in vivo electroporation” (priority 1998, dated 2011).

## bleomycin
  log P (partition coefficient between octanol and water): very negative
